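Cultured in 96-well plates, cells were exposed to test compound for 48 hours across five concentrations. TGI denotes the concentration required for complete inhibition of growth.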
How the values were obtained:
Test in all cases: DTP human tumour cell line panel, 48 h
SF-268 CNS = system: SF-268 CNS
NCI-H460 lung = system: NCI-H460 lung
COLO 205 colon = system: COLO 205 colon
SNB-19 CNS = system: SNB-19 CNS
OVCAR-5 ovarian = system: OVCAR-5 ovarian
OVCAR-3 ovarian = system: OVCAR-3 ovarian
SR leukemia = system: SR leukemia
SK-MEL-5 melanoma = system: SK-MEL-5 melanoma
BT-549 breast = system: BT-549 breast
SK-OV-3 ovarian = system: SK-OV-3 ovarian
ACHN renal = system: ACHN renal
CAKI-1 renal = system: CAKI-1 renal
OVCAR-8 ovarian = system: OVCAR-8 ovarian
SK-MEL-2 melanoma = system: SK-MEL-2 melanoma
UACC-62 melanoma = system: UACC-62 melanoma
A549 NSCLC = system: A549 NSCLC
T-47D breast = system: T-47D breast
SK-MEL-28 melanoma = system: SK-MEL-28 melanoma
LOX IMVI melanoma = system: LOX IMVI melanoma
SF-295 CNS = system: SF-295 CNS
HCT-116 colon = system: HCT-116 colon
MDA-MB-435 = system: MDA-MB-435
TK-10 renal = system: TK-10 renal
HCC-2998 colon = system: HCC-2998 colon
NCI-H522 lung = system: NCI-H522 lung
HOP-62 NSCLC = system: HOP-62 NSCLC
U251 CNS = system: U251 CNS
HS 578T breast = system: HS 578T breast
UO-31 renal = system: UO-31 renal
IGROV1 ovarian = system: IGROV1 ovarian
NCI/ADR-RES ovarian = system: NCI/ADR-RES ovarian
HCT-15 colon = system: HCT-15 colon
MOLT-4 leukemia = system: MOLT-4 leukemia
RPMI-8226 leukemia = system: RPMI-8226 leukemia
786-0 renal = system: 786-0 renal
M14 melanoma = system: M14 melanoma
CCRF-CEM leukemia = system: CCRF-CEM leukemia
HT29 colon = system: HT29 colon
NCI-H23 lung = system: NCI-H23 lung
DU-145 prostate = system: DU-145 prostate
UACC-257 melanoma = system: UACC-257 melanoma
HOP-92 NSCLC = system: HOP-92 NSCLC
RXF 393 renal = system: RXF 393 renal
K-562 leukemia = system: K-562 leukemia
PC-3 prostate = system: PC-3 prostate
SN12C renal = system: SN12C renal
EKVX NSCLC = system: EKVX NSCLC
MDA-MB-231 breast = system: MDA-MB-231 breast
MALME-3M melanoma = system: MALME-3M melanoma
OVCAR-4 ovarian = system: OVCAR-4 ovarian
SW-620 colon = system: SW-620 colon
MDA-N = system: MDA-N
KM12 colon = system: KM12 colon
SNB-75 CNS = system: SNB-75 CNS
NCI-H226 lung = system: NCI-H226 lung
MCF7 breast = system: MCF7 breast
A498 renal = system: A498 renal
HL-60(TB) leukemia = system: HL-60(TB) leukemia
SF-539 CNS = system: SF-539 CNS

Q: For `CCCCCCCC(=O)NC(C)(C)C(=O)NCC(=O)NC(CC(C)C)C(=O)NC(C)(C)C(=O)NCC(=O)NCC(=O)NC(CC(C)C)C(=O)NC(C)(C)C(=O)NCC(=O)NC(C(=O)NC(CO)CC(C)C)C(C)CC` (stereo not drawn), which TGI (SF-268 CNS) is on record?
A: 7.5 µM

Q: And the TGI (NCI-H460 lung)?
A: 8.11 µM

Q: And the TGI (COLO 205 colon)?
A: 7.18 µM

Q: What about the TGI (SNB-19 CNS) of the same compound?
A: 6.83 µM

Q: What about the TGI (OVCAR-5 ovarian) of the same compound?
A: 6.94 µM

Q: And the TGI (OVCAR-3 ovarian)?
A: 6.36 µM

Q: What about the TGI (SR leukemia) of the same compound?
A: 8.63 µM

Q: What about the TGI (SK-MEL-5 melanoma) of the same compound?
A: 7.19 µM

Q: And the TGI (BT-549 breast)?
A: 6.87 µM

Q: What about the TGI (SK-OV-3 ovarian) of the same compound?
A: 7.61 µM

Q: What about the TGI (ACHN renal) of the same compound?
A: 8.75 µM

Q: What about the TGI (CAKI-1 renal) of the same compound?
A: 8.07 µM

Q: And the TGI (OVCAR-8 ovarian)?
A: 7.62 µM

Q: And the TGI (SK-MEL-2 melanoma)?
A: 5.85 µM

Q: And the TGI (UACC-62 melanoma)?
A: 7.54 µM

Q: What about the TGI (A549 NSCLC) of the same compound?
A: 8.01 µM

Q: And the TGI (T-47D breast)?
A: 7.23 µM

Q: What about the TGI (SK-MEL-28 melanoma) of the same compound?
A: 7.32 µM

Q: And the TGI (LOX IMVI melanoma)?
A: 6.88 µM

Q: What about the TGI (SF-295 CNS) of the same compound?
A: 7.76 µM

Q: And the TGI (HCT-116 colon)?
A: 7.09 µM

Q: What about the TGI (MDA-MB-435) of the same compound?
A: 8.24 µM

Q: And the TGI (TK-10 renal)?
A: 8.17 µM

Q: What about the TGI (HCC-2998 colon) of the same compound?
A: 7.71 µM

Q: And the TGI (NCI-H522 lung)?
A: 7.26 µM

Q: And the TGI (HOP-62 NSCLC)?
A: 8.12 µM

Q: And the TGI (U251 CNS)?
A: 5.33 µM

Q: What about the TGI (HS 578T breast) of the same compound?
A: 8.81 µM

Q: What about the TGI (UO-31 renal) of the same compound?
A: 7.93 µM

Q: And the TGI (IGROV1 ovarian)?
A: 7.17 µM

Q: What about the TGI (NCI/ADR-RES ovarian) of the same compound?
A: 9.12 µM

Q: What about the TGI (HCT-15 colon) of the same compound?
A: 10.3 µM

Q: And the TGI (MOLT-4 leukemia)?
A: 9.43 µM

Q: What about the TGI (RPMI-8226 leukemia) of the same compound?
A: 4.27 µM

Q: What about the TGI (786-0 renal) of the same compound?
A: 8.11 µM

Q: And the TGI (M14 melanoma)?
A: 7.62 µM

Q: What about the TGI (CCRF-CEM leukemia) of the same compound?
A: 11.7 µM

Q: What about the TGI (HT29 colon) of the same compound?
A: 7.42 µM

Q: What about the TGI (NCI-H23 lung) of the same compound?
A: 7.49 µM

Q: What about the TGI (DU-145 prostate) of the same compound?
A: 9.53 µM

Q: And the TGI (UACC-257 melanoma)?
A: 7.96 µM

Q: What about the TGI (HOP-92 NSCLC) of the same compound?
A: 6.36 µM

Q: And the TGI (RXF 393 renal)?
A: 7.97 µM

Q: What about the TGI (K-562 leukemia) of the same compound?
A: 9.11 µM

Q: What about the TGI (PC-3 prostate) of the same compound?
A: 7.08 µM

Q: What about the TGI (SN12C renal) of the same compound?
A: 7.7 µM

Q: What about the TGI (EKVX NSCLC) of the same compound?
A: 6.91 µM

Q: What about the TGI (MDA-MB-231 breast) of the same compound?
A: 7.38 µM

Q: What about the TGI (MALME-3M melanoma) of the same compound?
A: 8.93 µM

Q: What about the TGI (OVCAR-4 ovarian) of the same compound?
A: 7.9 µM

Q: And the TGI (SW-620 colon)?
A: 9.28 µM

Q: And the TGI (MDA-N)?
A: 7.37 µM

Q: And the TGI (KM12 colon)?
A: 5.15 µM

Q: And the TGI (SNB-75 CNS)?
A: 7.28 µM

Q: What about the TGI (NCI-H226 lung) of the same compound?
A: 8.48 µM

Q: Which results are given for `NS(=O)(=O)c1ccc(Nc2c3ccccc3nc3c(C(=O)NC(CO)(CO)CO)cccc23)cc1`?
A: TGI (SF-268 CNS): 0.486 µM; TGI (NCI-H460 lung): 0.248 µM; TGI (COLO 205 colon): 0.175 µM; TGI (MCF7 breast): 0.106 µM; TGI (SNB-19 CNS): 0.783 µM; TGI (OVCAR-5 ovarian): 0.709 µM; TGI (OVCAR-3 ovarian): 0.339 µM; TGI (SR leukemia): > 1 µM; TGI (SK-MEL-5 melanoma): 0.229 µM; TGI (BT-549 breast): 0.322 µM; TGI (SK-OV-3 ovarian): 0.468 µM; TGI (ACHN renal): 0.508 µM; TGI (A498 renal): 0.466 µM; TGI (CAKI-1 renal): 0.525 µM; TGI (OVCAR-8 ovarian): 0.595 µM; TGI (SK-MEL-2 melanoma): 0.396 µM; TGI (UACC-62 melanoma): 0.318 µM; TGI (A549 NSCLC): 0.314 µM; TGI (T-47D breast): > 1 µM; TGI (SK-MEL-28 melanoma): 0.576 µM; TGI (LOX IMVI melanoma): 0.286 µM; TGI (SF-295 CNS): > 1 µM; TGI (HCT-116 colon): 0.327 µM; TGI (MDA-MB-435): 0.558 µM; TGI (TK-10 renal): 0.311 µM; TGI (HCC-2998 colon): 0.39 µM; TGI (NCI-H522 lung): 0.306 µM; TGI (HOP-62 NSCLC): 0.433 µM; TGI (U251 CNS): 0.457 µM; TGI (HS 578T breast): 0.44 µM; TGI (UO-31 renal): 0.366 µM; TGI (IGROV1 ovarian): 0.506 µM; TGI (NCI/ADR-RES ovarian): > 1 µM; TGI (HCT-15 colon): 0.948 µM; TGI (MOLT-4 leukemia): 0.195 µM; TGI (RPMI-8226 leukemia): 0.683 µM; TGI (786-0 renal): 0.0514 µM; TGI (M14 melanoma): 0.39 µM; TGI (CCRF-CEM leukemia): 0.891 µM; TGI (HT29 colon): 0.45 µM; TGI (NCI-H23 lung): 0.318 µM; TGI (DU-145 prostate): 0.812 µM; TGI (UACC-257 melanoma): 0.346 µM; TGI (HOP-92 NSCLC): 0.389 µM; TGI (RXF 393 renal): 0.386 µM; TGI (HL-60(TB) leukemia): 0.642 µM; TGI (K-562 leukemia): 0.642 µM; TGI (PC-3 prostate): 0.814 µM; TGI (SN12C renal): 0.695 µM; TGI (EKVX NSCLC): > 1 µM; TGI (MDA-MB-231 breast): 0.434 µM; TGI (SF-539 CNS): 0.407 µM; TGI (MALME-3M melanoma): 0.272 µM; TGI (OVCAR-4 ovarian): 0.193 µM; TGI (SW-620 colon): 0.435 µM; TGI (MDA-N): 0.862 µM; TGI (KM12 colon): 0.309 µM; TGI (NCI-H226 lung): 0.315 µM

From PubChem BioAssay (NCI)
